Measured values taken from patent publication US20130012432A1, “Peptides for Treatment of Obesity” (Novo Nordisk A/S, priority 2010, published 2013).
Converted amounts (≈) assume the structure as drawn. Positions of bridges follow the written chain, without caps; N, C: chain ends. Non-standard residues stand in square brackets, D forms with d. Residues, ends and D or L forms follow the SMILES beside them. Groups on a side chain read outwards from the residue. ξ: configuration not given here. *: point of attachment. Palmitoyl(16-(5-tetrazolyl)) = O=C(CCCCCCCCCCCCCCCc1nnn[nH]1)*; Lys(CH2CO2H)2 = N[C@@H](CCCCN(CC(=O)O)CC(=O)O)C(=O)O; C17 diacid = O=C(O)CCCCCCCCCCCCCCCC(=O)*; Hyp = O=C(O)[C@@H]1C[C@@H](O)CN1; ξH = NC(Cc1c[nH]cn1)C(=O)O; Orn = NCCC[C@H](N)C(=O)O; Dab = NCC[C@H](N)C(=O)O; Dap = NC[C@H](N)C(=O)O; AEEA = NCCOCCOCC(=O)O; ξK = NCCCCC(N)C(=O)O

Key:
[1] = physchem
Protocol: From a stock solution in vehicle, either H2O or 10 mM phosphate, containing 1 mg (as weighed) compound per ml, 8-11 aliquots are withdrawn and pH-adjusted individually with HCl/NaOH, to cover the whole pH range.

[2] = target: MC1 receptor (Homo sapiens, UniProt Q01726); assay: biochemical
Protocol: Assay (IV)—Melanocortin Receptor 1 (MC1) Binding Assay
The MC1 receptor binding assay was performed on BHK cell membranes stably expressing the MC1 receptor. The assay was performed in a total volume of 250 μl: 25 μl of ^125NDP-α-MSH (22 pM in final concentration), 25 μl of test compound/control and 200 μl of cell membrane (25 μg/ml). Test compounds were dissolved in DMSO. Radioactively labeled ligand, membranes and test compounds were diluted in buffer: 25 mM HEPES, pH 7.4, 0.1 mM CaCl2, 1 mM MgSO4, 1 mM EDTA, 0.1% HSA and 0.005% Tween™ 20. Alternatively, HSA may be substituted with ovalbumin. The samples were incubated at 30° C. for 90 min. in Costar round-bottom microtiter plates. Incubation was terminated by filtration on a Packard harvester filtermate. Rapid filtration through Packard Unifilter-96 GF/B filters pre-treated with polyetylenimine (PerkinElmer 6005277). The filters were washed with ice-cold 0.9% NaCl 8-10 times. The plates were air-dried at app. 55° C. for 30 min, and 50 μl Microscint 0 (Packard, cat. No. 6013616) was added to each well. The plates were counted in a Topcounter (1 min/well).
The data were analysed by non-linear regression analysis of binding curves, using the Windows™ program GraphPad™ Prism (GraphPad Software, USA).

Sequence of MC1 receptor (Q01726 whole entry): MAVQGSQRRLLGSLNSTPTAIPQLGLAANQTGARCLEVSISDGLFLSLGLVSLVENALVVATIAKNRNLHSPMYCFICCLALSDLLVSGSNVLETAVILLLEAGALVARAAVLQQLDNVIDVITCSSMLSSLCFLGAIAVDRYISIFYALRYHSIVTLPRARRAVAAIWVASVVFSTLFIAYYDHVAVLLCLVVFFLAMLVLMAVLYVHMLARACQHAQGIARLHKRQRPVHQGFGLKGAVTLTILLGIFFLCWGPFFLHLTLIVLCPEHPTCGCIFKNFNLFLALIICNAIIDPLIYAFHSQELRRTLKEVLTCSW

Compound	solubility ([1]; pH 6.7, Solubility Conc.) [µM]	solubility ([1]; pH 7, Solubility Conc.) [µM]	solubility ([1]; pH 7.5, Solubility Conc.) [µM]	solubility ([1]; pH 7.6, Solubility Conc.) [µM]	solubility ([1]; pH 7.8, Solubility Conc.) [µM]	solubility ([1]; pH 7.9, Solubility Conc.) [µM]	solubility ([1]; pH 8.1, Solubility Conc.) [µM]	Ki [2] [µM]	solubility ([1]; pH 6.4, Solubility Conc.) [µM]	solubility ([1]; pH 7.3, Solubility Conc.) [µM]	solubility ([1]; pH 7.4, Solubility Conc.) [µM]	solubility ([1]; pH 8, Solubility Conc.) [µM]	also measured
CC(=O)N[C@H]1CCC(=O)NCC[C@@H](C(=O)N2C[C@H](O)C[C@H]2C(=O)N2C[C@H](O)C[C@H]2C(=O)N[C@@H](CCCNC(=N)N)C(=O)N[C@@H](CC(=O)O)C(=O)N[C@@H](CCCCN(CC(=O)O)CC(=O)O)C(=O)N[C@@H](CCCCNC(=O)COCCOCCNC(=O)CCCCCCCCCCCCCCCc2nnn[nH]2)C(N)=O)NC(=O)[C@H](Cc2c[nH]c3ccccc23)NC(=O)[C@H](CCCNC(=N)N)NC(=O)[C@@H](Cc2ccccc2)NC(=O)[C@H](Cc2c[nH]cn2)NC1=O [Example 32, Ac-c[Glu-His-D-Phe-Arg-Trp-Dab]-Hyp-Hyp-Arg-Asp-Lys(biscarboxymethyl)-Lys[(2-{2-[16-(tetrazol-5-yl)hexadecanoylamino]ethoxy}ethoxy)acetyl]-NH2] (Ac-EH[dF]RW[Dab][Hyp][Hyp]RD[Lys(CH2CO2H)2]K([AEEA-Palmitoyl(16-(5-tetrazolyl))])-NH2; lactam 1-6)	40 (≈ 88.7 µg/mL)	60 (≈ 133 µg/mL)	258 (≈ 572 µg/mL)	324 (≈ 719 µg/mL)	640 (≈ 1420 µg/mL)	674 (≈ 1500 µg/mL)	230 (≈ 510 µg/mL)	> 10					solubility ([1]; pH 7.2, Solubility Conc.): 89 µM (≈ 197 µg/mL)
CC(=O)N[C@H]1CCNC(=O)C[C@@H](C(=O)N2CCC[C@H]2C(=O)N2CCC[C@H]2C(=O)N[C@@H](Cc2c[nH]cn2)C(=O)N[C@@H](CCC(=O)O)C(=O)N[C@@H](CCCCN(CC(=O)O)CC(=O)O)C(=O)N[C@@H](CCCCNC(=O)COCCOCCNC(=O)CCCCCCCCCCCCCCCc2nnn[nH]2)C(N)=O)NC(=O)[C@H](Cc2c[nH]c3ccccc23)NC(=O)[C@H](CCCNC(=N)N)NC(=O)[C@@H](Cc2ccccc2)NC(=O)[C@H](Cc2c[nH]cn2)NC1=O [Example 33, Ac-c[Dab-His-D-Phe-Arg-Trp-Asp]-Pro-Pro-His-Glu-Lys(biscarboxymethyl)-Lys[(2-{2-[16-(tetrazol-5-yl)hexadecanoylamino]ethoxy}ethoxy)acetyl]-NH2] (Ac-[Dab]H[dF]RWDPPHE[Lys(CH2CO2H)2]K([AEEA-Palmitoyl(16-(5-tetrazolyl))])-NH2; lactam 1-6)	485 (≈ 1050 µg/mL)		503 (≈ 1090 µg/mL)		489 (≈ 1060 µg/mL)		511 (≈ 1110 µg/mL)	> 10	122 (≈ 264 µg/mL)	488 (≈ 1060 µg/mL)			solubility ([1]; pH 6.6, Solubility Conc.): 468 µM (≈ 1010 µg/mL); solubility ([1]; pH 6.9, Solubility Conc.): 487 µM (≈ 1060 µg/mL); solubility ([1]; pH 8.6, Solubility Conc.): 473 µM (≈ 1030 µg/mL)
CC(=O)N[C@H]1CCC(=O)NCCC[C@@H](C(=O)N2CCC[C@H]2C(=O)N2CCC[C@H]2C(=O)N[C@@H](CCCNC(=N)N)C(=O)N[C@@H](CC(=O)O)C(=O)N[C@@H](CCCCN(CC(=O)O)CC(=O)O)C(=O)N[C@@H](CCCCNC(=O)COCCOCCNC(=O)CCCCCCCCCCCCCCCc2nnn[nH]2)C(N)=O)NC(=O)[C@H](Cc2c[nH]c3ccccc23)NC(=O)[C@H](CCCNC(=N)N)NC(=O)[C@@H](Cc2ccccc2)NC(=O)[C@H](CCC(N)=O)NC1=O [Example 37, Ac-c[Glu-Gln-D-Phe-Arg-Trp-Orn]-Pro-Pro-Arg-Asp-Lys(biscarboxymethyl)-Lys[(2-{2-[16-(tetrazol-5-yl)hexadecanoylamino]ethoxy}ethoxy)acetyl]-NH2] (Ac-EQ[dF]RW[Orn]PPRD[Lys(CH2CO2H)2]K([AEEA-Palmitoyl(16-(5-tetrazolyl))])-NH2; lactam 1-6)		510 (≈ 1120 µg/mL)	458 (≈ 1000 µg/mL)	467 (≈ 1020 µg/mL)		507 (≈ 1110 µg/mL)		> 10	464 (≈ 1020 µg/mL)	486 (≈ 1070 µg/mL)			solubility ([1]; pH 5.7, Solubility Conc.): 95 µM (≈ 208 µg/mL); solubility ([1]; pH 6.6, Solubility Conc.): 450 µM (≈ 986 µg/mL); solubility ([1]; pH 6.8, Solubility Conc.): 453 µM (≈ 993 µg/mL); solubility ([1]; pH 7.2, Solubility Conc.): 482 µM (≈ 1060 µg/mL)
CC(=O)N[C@H]1CCCNC(=O)C[C@@H](C(=O)N2CCC[C@H]2C(=O)N[C@@H](CO)C(=O)NC(CCCCN)C(=O)N[C@@H](CCC(=O)O)C(=O)N[C@@H](CCC(=O)O)C(=O)N[C@@H](CO)C(=O)N[C@@H](CO)C(=O)N[C@@H](CCCCNC(=O)COCCOCCNC(=O)CCCCCCCCCCCCCCCC(=O)O)C(N)=O)NC(=O)CNC(=O)[C@H](Cc2c[nH]c3ccccc23)NC(=O)[C@H](CCCNC(=N)N)NC(=O)[C@@H](Cc2ccccc2)NC(=O)C(Cc2c[nH]cn2)NC(=O)[C@H](CCC(=O)O)NC1=O (some centres unmarked) [Example 40] (Ac-[Orn]E[ξH][dF]RWGDPS[ξK]EESSK([AEEA-C17 diacid])-NH2; lactam 1-8)	493 (≈ 1180 µg/mL)	505 (≈ 1200 µg/mL)		489 (≈ 1170 µg/mL)				> 10			499 (≈ 1190 µg/mL)	488 (≈ 1160 µg/mL)	solubility ([1]; pH 5.9, Solubility Conc.): 266 µM (≈ 634 µg/mL); solubility ([1]; pH 6.3, Solubility Conc.): 501 µM (≈ 1190 µg/mL); solubility ([1]; pH 6.5, Solubility Conc.): 512 µM (≈ 1220 µg/mL); solubility ([1]; pH 8.2, Solubility Conc.): 503 µM (≈ 1200 µg/mL)
CC(=O)N[C@H]1CC(=O)NC[C@@H](C(=O)N2CCC[C@H]2C(=O)N2CCC[C@H]2C(=O)N[C@@H](CCCNC(=N)N)C(=O)N[C@@H](CC(=O)O)C(=O)N[C@@H](CCCCN(CC(=O)O)CC(=O)O)C(=O)N[C@@H](CCCCNC(=O)COCCOCCNC(=O)CCCCCCCCCCCCCCCc2nnn[nH]2)C(N)=O)NC(=O)[C@H](Cc2c[nH]c3ccccc23)NC(=O)[C@H](CCCNC(=N)N)NC(=O)[C@@H](Cc2ccccc2)NC(=O)[C@H](Cc2c[nH]cn2)NC1=O [Example 41, Ac-c[Asp-His-D-Phe-Arg-Trp-Dap]-Pro-Pro-Arg-Asp-Lys(biscarboxymethyl)-Lys[(2-{2-[16-(tetrazol-5-yl)hexadecanoylamino]ethoxy}ethoxy)acetyl]-NH2] (Ac-DH[dF]RW[Dap]PPRD[Lys(CH2CO2H)2]K([AEEA-Palmitoyl(16-(5-tetrazolyl))])-NH2; lactam 1-6)		39 (≈ 84.2 µg/mL)	387 (≈ 835 µg/mL)	497 (≈ 1070 µg/mL)	451 (≈ 973 µg/mL)			> 10		87 (≈ 188 µg/mL)	160 (≈ 345 µg/mL)	493 (≈ 1060 µg/mL)	solubility ([1]; pH 7.7, Solubility Conc.): 478 µM (≈ 1030 µg/mL)
CC(=O)N[C@H]1CCCCNC(=O)C[C@@H](C(=O)N2CCC[C@H]2C(=O)N2CCC[C@H]2C(=O)N[C@@H](Cc2c[nH]cn2)C(=O)N[C@@H](CO)C(=O)N[C@@H](CCCCN(CC(=O)O)CC(=O)O)C(=O)N[C@@H](CO)C(=O)N[C@@H](CO)C(=O)N[C@@H](CCC(=O)O)C(=O)N[C@@H](CCCCNC(=O)COCCOCCNC(=O)CCCCCCCCCCCCCCCC(=O)O)C(N)=O)NC(=O)[C@H](Cc2c[nH]c3ccccc23)NC(=O)[C@H](CCCNC(=N)N)NC(=O)[C@@H](Cc2ccccc2)NC(=O)[C@H](Cc2c[nH]cn2)NC1=O [Example 45, Ac-c[Lys-His-D-Phe-Arg-Trp-Asp]-Pro-Pro-His-Ser-Lys(biscarboxymethyl)-Ser-Ser-Glu-Lys({2-[2-(16-carboxyhexadecanoylamino)ethoxy]ethoxy}acetyl)-NH2] (Ac-KH[dF]RWDPPHS[Lys(CH2CO2H)2]SSEK([AEEA-C17 diacid])-NH2; lactam 1-6)	334 (≈ 813 µg/mL)	370 (≈ 900 µg/mL)	380 (≈ 924 µg/mL)			391 (≈ 951 µg/mL)	400 (≈ 973 µg/mL)	> 10	199 (≈ 484 µg/mL)	391 (≈ 951 µg/mL)			solubility ([1]; pH 6.8, Solubility Conc.): 350 µM (≈ 851 µg/mL); solubility ([1]; pH 7.7, Solubility Conc.): 379 µM (≈ 922 µg/mL)
CC(=O)N[C@H]1CCC(=O)NCCCC[C@@H](C(=O)N2C[C@H](O)C[C@H]2C(=O)N2C[C@H](O)C[C@H]2C(=O)N[C@@H](CCCNC(=N)N)C(=O)N[C@@H](CC(=O)O)C(=O)N[C@@H](CCCCN(CC(=O)O)CC(=O)O)C(=O)N[C@@H](CCCCNC(=O)COCCOCCNC(=O)CCCCCCCCCCCCCCCc2nnn[nH]2)C(N)=O)NC(=O)[C@H](Cc2c[nH]c3ccccc23)NC(=O)[C@H](CCCNC(=N)N)NC(=O)[C@@H](Cc2ccccc2)NC(=O)[C@H](Cc2c[nH]cn2)NC1=O [Example 48, Ac-c[Glu-His-D-Phe-Arg-Trp-Lys]-Hyp-Hyp-Arg-Asp-Lys(biscarboxymethyl)-Lys[(2-{2-[16-(tetrazol-5-yl)hexadecanoylamino]ethoxy}ethoxy)acetyl]-NH2] (Ac-EH[dF]RWK[Hyp][Hyp]RD[Lys(CH2CO2H)2]K([AEEA-Palmitoyl(16-(5-tetrazolyl))])-NH2; lactam 1-6)	54 (≈ 121 µg/mL)	107 (≈ 240 µg/mL)	368 (≈ 827 µg/mL)	416 (≈ 935 µg/mL)	430 (≈ 966 µg/mL)		418 (≈ 939 µg/mL)	> 10		218 (≈ 490 µg/mL)	309 (≈ 694 µg/mL)	420 (≈ 944 µg/mL)	solubility ([1]; pH 8.3, Solubility Conc.): 412 µM (≈ 926 µg/mL)
CC(=O)N[C@H]1CCCCNC(=O)C[C@@H](C(=O)N2CCC[C@H]2C(=O)N2CCC[C@H]2C(=O)N[C@@H](Cc2c[nH]cn2)C(=O)N[C@@H](CCC(=O)O)C(=O)N[C@@H](CCC(=O)O)C(=O)N[C@@H](CO)C(=O)N[C@@H](CO)C(=O)N[C@@H](CCC(=O)O)C(=O)N[C@@H](CCCCNC(=O)COCCOCCNC(=O)CCCCCCCCCCCCCCCC(=O)O)C(N)=O)NC(=O)[C@H](Cc2c[nH]c3ccccc23)NC(=O)[C@H](CCCNC(=N)N)NC(=O)[C@@H](Cc2ccccc2)NC(=O)[C@H](Cc2c[nH]cn2)NC1=O [Example 52] (Ac-KH[dF]RWDPPHEESSEK([AEEA-C17 diacid])-NH2; lactam 1-6)	376 (≈ 887 µg/mL)	372 (≈ 878 µg/mL)	382 (≈ 901 µg/mL)	381 (≈ 899 µg/mL)				> 10		378 (≈ 892 µg/mL)		391 (≈ 923 µg/mL)	solubility ([1]; pH 6.1, Solubility Conc.): 169 µM (≈ 399 µg/mL); solubility ([1]; pH 6.3, Solubility Conc.): 339 µM (≈ 800 µg/mL); solubility ([1]; pH 8.3, Solubility Conc.): 390 µM (≈ 920 µg/mL)
